{"source": "paper PMC11990103", "about": "“Anticancer Activity and Safety Profile of Novel 1-(4-Fluorophenoxyacetyl)-4-substituted Thio/Semicarbazide Derivatives” (Molecules, 2025)", "experiment_in_all_cases": "MTT cytotoxicity assay", "assay_type_in_all_cases": "cell-based, human", "key": {"[1]": {"system": "PC-3 prostate cancer cell line", "settings": "48 h treatment", "method": "(§1) These cancer cell lines comprised prostate cancer (PC-3, DU-145, LNCaP), melanoma (SK-MEL28, A375, G-361), breast cancer (MCF-7, MDA-MB-231), and lung cancer (NCI-H1563). The MTT assay was carried out across a wide range of concentrations for 48 h.\n(§2) The research was conducted on one primary cell line: BJ (fibroblast) and four types of cancerous ones: three prostate cancer cell lines (PC-3, DU-145, LNCaP); 3 Melanoma cell lines (MEL-28, A375, G-361); 2 breast cancer cell lines (MCF-7, MDA-MB-23) and one lung cancer cell line (NCI-H1563). All cell lines were obtained from the American Type Culture Collection (ATCC, Manassas, VA, USA) and were grown in media (Corning, New York, NY, USA) according to ATCC guidelines. The culture media was enriched with 10% heat-inactivated fetal bovine serum (Life Technologies, Carlsbad, CA, USA) and antibiotics: penicillin (100 units) and streptomycin (100 μg/mL) from Sigma-Aldrich (St. Louis, MO, USA). The cells were incubated at 37 °C with 5% CO2 in air.\n(§3) The cytotoxic analysis of thiosemicarbazides (TSC) (AB1–AB6) and semicarbazides (SC) (AB7–AB12) was conducted in various concentrations. […] The cells were treated with compounds or DMSO as a vehicle in control cultures for 48h. IC50 values were determined using the AAT Bioquest IC50 calculator (AAT Bioquest, Inc., Pleasanton, CA, USA, Quest Graph™ EC50 Calculator. https://www.aatbio.com/tools/ec50-calculator) (accessed on 7 October 2024).\n(§4) The cytotoxic activity of the thiosemicarbazides and semicarbazides was measured using the MTT colorimetric assay (MTT Cell Proliferation Assay Kit—Invitrogen, Waltham, MA, USA). The cells were seeded in the 96-well plates at a density of 1.5 × 10^5 cells/mL. After reaching 70–80% of confluence, the tested compounds in a wide range of concentrations were added. Plates were incubated for 48 h at 37 °C in 5% CO2 air. Then, […] tetrazolium salt (3-(4,5-dimethylthiazol-2-yl)-2,5-diphenyltetrazolium bromide)—MTT reagent (0.5 mg/mL) dissolved in PBS was added to each well for 4 h. The MTT solution was then removed from above the water-insoluble purple formazan crystals, which were then dissolved in DMSO (dimethyl sulfoxide, […]; POCH, Gliwice, Poland). The absorbance value of obtained solutions was measured using a PowerWave ™ microplate spectrophotometer (Bio-Tek Instruments, Winooski, VT, USA) at a wavelength of 570 nm. Each cytotoxicity assay was repeated three times in triplicates."}, "[2]": {"system": "DU-145 prostate cancer cell line", "settings": "48 h treatment", "method": "as §1, §2, §3, §4"}, "[3]": {"system": "G-361 melanoma cell line", "method": "as §1, §2, §3, §4"}, "[4]": {"system": "NCI-H1563 lung cancer cell line", "settings": "48 h treatment", "method": "as §1, §2, §3, §4"}, "[5]": {"system": "SK-MEL28 melanoma cell line", "settings": "48 h treatment", "method": "as §1, §2, §3, §4"}, "[6]": {"system": "MDA-MB-231 breast cancer cell line", "settings": "48 h treatment", "method": "as §1, §2, §3, §4"}, "[7]": {"system": "A375 melanoma cell line", "settings": "48 h treatment", "method": "as §1, §2, §3, §4"}, "[8]": {"system": "LNCaP prostate cancer cell line", "method": "as §1, §2, §3, §4"}, "[9]": {"system": "MCF-7 breast cancer cell line", "settings": "48 h treatment", "method": "as §1, §2, §3, §4"}}}
{"smiles": "O=C(COc1ccc(F)cc1)NNC(=S)Nc1ccccc1Cl", "note": "[AB2]", "values": [{"measurement": "IC50", "setting": "[1]", "value": "> 500", "unit": "µM"}, {"measurement": "IC50", "setting": "[2]", "value": "> 500", "unit": "µM"}, {"measurement": "selectivity index (SI), G-361", "setting": "[3]; IC50 normal cells (BJ) divided by IC50 G-361", "value": 2.04}, {"measurement": "IC50", "setting": "[3]; MTT, 48 h treatment", "value": 223, "unit": "µM"}, {"measurement": "IC50", "setting": "[4]", "value": "> 500", "unit": "µM"}, {"measurement": "IC50", "setting": "[5]", "value": 470, "unit": "µM"}, {"measurement": "IC50", "setting": "[6]", "value": "> 500", "unit": "µM"}, {"measurement": "IC50", "setting": "[7]", "value": 429, "unit": "µM"}, {"measurement": "selectivity index (SI), LNCaP", "setting": "[8]; IC50 normal cells (BJ) divided by IC50 LNCaP", "value": 4.19}, {"measurement": "IC50", "setting": "[8]; MTT, 48 h treatment", "value": 108, "unit": "µM"}, {"measurement": "IC50", "setting": "[9]", "value": "> 500", "unit": "µM"}]}
